Source: the kinase profiling compilation of Christmann-Franck et al. (2016)

Tests used:
Assay in all cases: split-luciferase competition binding
[1] = molecular target: RPS6KA2 KD1 (human) (UniProt Q15349); settings: compound 10.0 µM
[2] = molecular target: PRKCE (human) (UniProt Q02156); settings: compound 10.0 µM
[3] = molecular target: AURKA (human) (UniProt O14965); settings: compound 10.0 µM
[4] = molecular target: PRKACB (human) (UniProt P22694); settings: compound 10.0 µM
[5] = molecular target: SGK3 (human) (UniProt Q96BR1); settings: compound 10.0 µM
[6] = molecular target: AKT2 (human) (UniProt P31751); settings: compound 10.0 µM
[7] = molecular target: RPS6KA6 KD1 (human) (UniProt Q9UK32); settings: compound 10.0 µM
[8] = system: PRKACA (mouse); settings: compound 10.0 µM; accession and sequence are those of the human protein
[9] = molecular target: RPS6KA5 KD1 (human) (UniProt O75582); settings: compound 10.0 µM
[10] = molecular target: RPS6KA4 KD1 (human) (UniProt O75676); settings: compound 10.0 µM
[11] = molecular target: PKN1 (human) (UniProt Q16512); settings: compound 10.0 µM
[12] = molecular target: AURKC (human) (UniProt Q9UQB9); settings: compound 10.0 µM
[13] = molecular target: PDPK1 (human) (UniProt O15530); settings: compound 10.0 µM
[14] = molecular target: PRKCQ (human) (UniProt Q04759); settings: compound 10.0 µM
[15] = molecular target: PRKCG (human) (UniProt P05129); settings: compound 10.0 µM
[16] = molecular target: PRKCI (human) (UniProt P41743); settings: compound 10.0 µM
[17] = molecular target: RPS6KA3 KD1 (human) (UniProt P51812); settings: compound 10.0 µM
[18] = molecular target: SGK2 (human) (UniProt Q9HBY8); settings: compound 10.0 µM
[19] = molecular target: PRKCD (human) (UniProt Q05655); settings: compound 10.0 µM
[20] = molecular target: STK32B (human) (UniProt Q9NY57); settings: compound 10.0 µM
[21] = molecular target: AKT3 (human) (UniProt Q9Y243); settings: compound 10.0 µM
[22] = molecular target: AURKB (human) (UniProt Q96GD4); settings: compound 10.0 µM
[23] = molecular target: PRKCH (human) (UniProt P24723); settings: compound 10.0 µM
[24] = molecular target: RPS6KA1 KD1 (human) (UniProt Q15418); settings: compound 10.0 µM
[25] = molecular target: PRKX (human) (UniProt P51817); settings: compound 10.0 µM
[26] = molecular target: AKT1 (human) (UniProt P31749); settings: compound 10.0 µM
[27] = molecular target: DMPK (human) (UniProt Q09013); settings: compound 10.0 µM
DMPK (human), sequence (Q09013 whole entry, looked up): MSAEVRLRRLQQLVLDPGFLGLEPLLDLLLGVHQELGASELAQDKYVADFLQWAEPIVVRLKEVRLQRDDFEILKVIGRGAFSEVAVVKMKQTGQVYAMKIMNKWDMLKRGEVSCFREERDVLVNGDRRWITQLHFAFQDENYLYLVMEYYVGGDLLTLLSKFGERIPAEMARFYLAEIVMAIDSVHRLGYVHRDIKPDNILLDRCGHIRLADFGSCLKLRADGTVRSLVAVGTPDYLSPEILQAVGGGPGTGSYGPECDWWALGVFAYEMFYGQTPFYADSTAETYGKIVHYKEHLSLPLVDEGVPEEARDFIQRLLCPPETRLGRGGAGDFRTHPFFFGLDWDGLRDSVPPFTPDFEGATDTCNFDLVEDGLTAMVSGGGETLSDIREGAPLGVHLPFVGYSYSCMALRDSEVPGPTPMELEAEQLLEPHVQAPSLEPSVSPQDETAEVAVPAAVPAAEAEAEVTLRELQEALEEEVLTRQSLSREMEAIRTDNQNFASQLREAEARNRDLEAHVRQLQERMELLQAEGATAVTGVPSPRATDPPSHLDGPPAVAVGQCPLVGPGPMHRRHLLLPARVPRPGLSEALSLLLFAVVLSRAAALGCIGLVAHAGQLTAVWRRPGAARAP

AURKA (human), sequence (O14965 whole entry, looked up): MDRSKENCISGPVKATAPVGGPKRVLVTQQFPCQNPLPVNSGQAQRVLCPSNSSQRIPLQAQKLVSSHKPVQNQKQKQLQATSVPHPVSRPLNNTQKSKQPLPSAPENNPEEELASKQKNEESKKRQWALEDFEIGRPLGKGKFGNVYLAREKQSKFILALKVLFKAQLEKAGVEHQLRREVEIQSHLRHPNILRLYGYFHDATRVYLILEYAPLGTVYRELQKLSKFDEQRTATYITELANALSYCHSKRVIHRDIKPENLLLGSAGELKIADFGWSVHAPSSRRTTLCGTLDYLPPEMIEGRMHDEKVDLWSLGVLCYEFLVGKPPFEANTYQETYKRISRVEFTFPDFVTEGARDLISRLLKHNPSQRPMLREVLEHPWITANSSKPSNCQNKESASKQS
PRKCQ (human), sequence (Q04759 whole entry, looked up): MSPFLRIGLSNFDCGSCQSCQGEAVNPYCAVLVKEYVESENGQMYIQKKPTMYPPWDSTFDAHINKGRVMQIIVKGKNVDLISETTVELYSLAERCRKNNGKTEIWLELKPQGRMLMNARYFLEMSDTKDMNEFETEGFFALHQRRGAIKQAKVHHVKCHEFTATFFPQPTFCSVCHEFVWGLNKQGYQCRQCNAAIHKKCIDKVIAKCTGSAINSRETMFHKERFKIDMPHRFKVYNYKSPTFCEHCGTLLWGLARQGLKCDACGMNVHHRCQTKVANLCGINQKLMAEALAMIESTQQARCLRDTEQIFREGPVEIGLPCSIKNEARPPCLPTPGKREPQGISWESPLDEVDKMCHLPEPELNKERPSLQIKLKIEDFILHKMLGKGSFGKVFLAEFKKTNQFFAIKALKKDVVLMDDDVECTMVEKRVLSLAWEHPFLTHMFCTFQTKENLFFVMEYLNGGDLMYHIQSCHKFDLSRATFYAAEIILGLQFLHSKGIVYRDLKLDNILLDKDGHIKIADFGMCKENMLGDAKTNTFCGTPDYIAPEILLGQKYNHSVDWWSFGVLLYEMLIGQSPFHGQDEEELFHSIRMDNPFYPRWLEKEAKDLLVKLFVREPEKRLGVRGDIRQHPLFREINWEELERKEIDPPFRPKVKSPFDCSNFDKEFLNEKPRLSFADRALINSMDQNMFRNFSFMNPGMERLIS
STK32B (human), sequence (Q9NY57 whole entry, looked up): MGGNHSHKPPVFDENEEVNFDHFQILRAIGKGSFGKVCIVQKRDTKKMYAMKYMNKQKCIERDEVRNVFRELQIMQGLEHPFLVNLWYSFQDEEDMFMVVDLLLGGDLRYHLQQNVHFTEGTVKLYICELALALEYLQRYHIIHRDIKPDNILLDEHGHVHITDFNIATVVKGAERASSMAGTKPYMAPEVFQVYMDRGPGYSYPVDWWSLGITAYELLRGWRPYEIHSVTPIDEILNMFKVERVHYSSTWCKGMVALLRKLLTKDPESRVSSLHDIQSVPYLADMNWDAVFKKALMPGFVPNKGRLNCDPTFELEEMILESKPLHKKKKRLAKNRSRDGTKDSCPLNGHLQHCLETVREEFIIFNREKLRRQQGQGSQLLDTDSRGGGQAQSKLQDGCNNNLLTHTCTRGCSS
PRKCD (human), sequence (Q05655 whole entry, looked up): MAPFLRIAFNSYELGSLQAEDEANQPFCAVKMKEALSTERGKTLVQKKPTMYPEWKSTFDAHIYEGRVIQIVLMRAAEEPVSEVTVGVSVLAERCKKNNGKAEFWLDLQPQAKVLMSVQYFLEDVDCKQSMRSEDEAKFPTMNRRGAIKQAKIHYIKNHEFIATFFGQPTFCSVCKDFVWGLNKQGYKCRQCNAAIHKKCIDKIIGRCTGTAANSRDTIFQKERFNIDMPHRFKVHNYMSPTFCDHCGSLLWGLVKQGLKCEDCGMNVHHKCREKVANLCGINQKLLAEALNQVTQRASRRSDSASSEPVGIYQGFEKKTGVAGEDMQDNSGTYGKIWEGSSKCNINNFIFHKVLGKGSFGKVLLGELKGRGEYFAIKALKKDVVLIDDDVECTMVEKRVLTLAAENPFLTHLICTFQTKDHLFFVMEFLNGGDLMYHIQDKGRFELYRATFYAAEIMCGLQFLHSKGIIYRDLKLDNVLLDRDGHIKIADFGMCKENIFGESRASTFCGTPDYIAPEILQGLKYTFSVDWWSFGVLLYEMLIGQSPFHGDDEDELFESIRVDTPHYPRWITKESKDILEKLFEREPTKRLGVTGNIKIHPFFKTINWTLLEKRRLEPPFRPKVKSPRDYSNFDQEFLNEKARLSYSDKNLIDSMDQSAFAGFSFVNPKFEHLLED
SGK2 (human), sequence (Q9HBY8 whole entry, looked up): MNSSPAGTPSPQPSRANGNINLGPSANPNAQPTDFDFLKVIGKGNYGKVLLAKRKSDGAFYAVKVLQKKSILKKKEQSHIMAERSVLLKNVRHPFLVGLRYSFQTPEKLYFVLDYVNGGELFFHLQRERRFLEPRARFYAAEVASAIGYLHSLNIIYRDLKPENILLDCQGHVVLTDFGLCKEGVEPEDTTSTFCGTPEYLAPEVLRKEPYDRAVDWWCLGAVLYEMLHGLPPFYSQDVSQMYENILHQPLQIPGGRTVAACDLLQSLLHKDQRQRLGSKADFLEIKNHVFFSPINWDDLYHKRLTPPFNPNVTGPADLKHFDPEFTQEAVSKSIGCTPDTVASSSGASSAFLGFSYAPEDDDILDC
AKT3 (human), sequence (Q9Y243 whole entry, looked up): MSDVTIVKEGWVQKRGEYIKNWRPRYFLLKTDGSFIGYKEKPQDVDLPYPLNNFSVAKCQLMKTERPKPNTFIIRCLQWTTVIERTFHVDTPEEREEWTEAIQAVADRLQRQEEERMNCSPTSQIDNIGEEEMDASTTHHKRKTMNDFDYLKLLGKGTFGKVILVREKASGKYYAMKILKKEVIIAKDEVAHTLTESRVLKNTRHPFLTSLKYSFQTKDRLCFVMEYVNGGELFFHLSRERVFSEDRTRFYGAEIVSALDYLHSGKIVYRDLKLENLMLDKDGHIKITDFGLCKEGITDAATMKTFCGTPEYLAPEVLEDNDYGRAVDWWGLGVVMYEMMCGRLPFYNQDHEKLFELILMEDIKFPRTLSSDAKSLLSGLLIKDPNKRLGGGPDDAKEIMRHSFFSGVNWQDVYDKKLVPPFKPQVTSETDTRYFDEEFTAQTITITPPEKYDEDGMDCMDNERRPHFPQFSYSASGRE
AKT2 (human), sequence (P31751 whole entry, looked up): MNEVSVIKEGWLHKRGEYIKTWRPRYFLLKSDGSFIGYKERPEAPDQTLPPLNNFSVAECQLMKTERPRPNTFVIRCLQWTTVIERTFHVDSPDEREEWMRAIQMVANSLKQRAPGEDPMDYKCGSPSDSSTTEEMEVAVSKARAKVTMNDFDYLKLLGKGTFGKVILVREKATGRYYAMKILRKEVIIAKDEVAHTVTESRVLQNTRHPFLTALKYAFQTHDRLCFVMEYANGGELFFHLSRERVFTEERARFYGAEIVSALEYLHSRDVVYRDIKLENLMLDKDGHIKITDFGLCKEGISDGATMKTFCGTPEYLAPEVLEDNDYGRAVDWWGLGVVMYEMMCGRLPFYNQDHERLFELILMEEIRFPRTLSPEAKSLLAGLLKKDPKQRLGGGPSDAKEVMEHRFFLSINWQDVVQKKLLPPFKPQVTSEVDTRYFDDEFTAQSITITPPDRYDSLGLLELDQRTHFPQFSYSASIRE
RPS6KA4 KD1 (human), sequence (O75676 whole entry, looked up): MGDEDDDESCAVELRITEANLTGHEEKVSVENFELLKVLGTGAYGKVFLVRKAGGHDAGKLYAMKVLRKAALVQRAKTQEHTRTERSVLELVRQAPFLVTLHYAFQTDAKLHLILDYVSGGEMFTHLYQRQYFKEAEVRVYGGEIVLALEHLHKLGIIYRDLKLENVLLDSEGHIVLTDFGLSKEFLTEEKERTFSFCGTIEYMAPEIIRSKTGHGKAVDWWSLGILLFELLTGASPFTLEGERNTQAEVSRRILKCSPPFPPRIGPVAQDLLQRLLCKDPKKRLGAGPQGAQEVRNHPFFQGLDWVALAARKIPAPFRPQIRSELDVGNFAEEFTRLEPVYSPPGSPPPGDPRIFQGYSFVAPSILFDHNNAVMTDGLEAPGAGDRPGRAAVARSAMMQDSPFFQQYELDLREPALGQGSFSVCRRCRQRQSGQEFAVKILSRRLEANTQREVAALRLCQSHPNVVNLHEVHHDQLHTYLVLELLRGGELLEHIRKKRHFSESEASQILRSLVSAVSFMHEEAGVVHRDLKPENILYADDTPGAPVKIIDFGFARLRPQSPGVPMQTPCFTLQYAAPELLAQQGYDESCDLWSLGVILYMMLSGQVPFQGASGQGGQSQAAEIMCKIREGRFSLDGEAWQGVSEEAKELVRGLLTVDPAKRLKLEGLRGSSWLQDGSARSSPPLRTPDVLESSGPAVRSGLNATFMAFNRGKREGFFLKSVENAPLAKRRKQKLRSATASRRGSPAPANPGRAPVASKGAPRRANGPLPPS

inhibition [1] [%]	inhibition [2] [%]	inhibition [3] [%]	inhibition [4] [%]	inhibition [5] [%]	inhibition [6] [%]	inhibition [7] [%]	inhibition [8] [%]	inhibition [9] [%]	inhibition [10] [%]	inhibition [11] [%]	inhibition [12] [%]	inhibition [13] [%]	inhibition [14] [%]	inhibition [15] [%]	inhibition [16] [%]	inhibition [17] [%]	inhibition [18] [%]	inhibition [19] [%]	inhibition [20] [%]	Compound	further results
48	2	0	0	0	0	19	7	2	12	0	0	0	0	0	0	41	0	0	4	CC(C)[C@H](CO)Nc1nc(Nc2cccc(Cl)c2)c2ncn(C(C)C)c2n1	inhibition [21]: 0%; inhibition [22]: 0%; inhibition [23]: 0%; inhibition [24]: 65%; inhibition [25]: 0%; inhibition [26]: 0%; inhibition [27]: 11%
14	7	19	13	0	0	25	1	22	12	0	39	7	0	12	7	13	2	0	23	Cc1[nH]c(/C=C2\C(=O)Nc3ccc(S(=O)(=O)Cc4c(Cl)cccc4Cl)cc32)c(C)c1C(=O)N1CCC[C@@H]1CN1CCCC1	inhibition [21]: 0%; inhibition [22]: 33%; inhibition [23]: 12%; inhibition [24]: 32%; inhibition [25]: 7%; inhibition [26]: 8%; inhibition [27]: 9%
0	14	13	5	6	0	5	8	0	6	0	21	0	0	10	0	0	11	0	9	CS(=O)(=O)CCNCc1nc(-c2ccc3ncnc(Nc4ccc(OCc5cccc(F)c5)c(Cl)c4)c3c2)cs1	inhibition [21]: 0%; inhibition [22]: 0%; inhibition [23]: 6%; inhibition [24]: 14%; inhibition [25]: 7%; inhibition [26]: 16%; inhibition [27]: 5%
0	11	0	1	1	0	0	0	0	0	0	0	0	2	6	0	0	0	0	11	O=C(Nc1cc(C(F)(F)F)cc(C(F)(F)F)c1)c1cc(Cl)ccc1O	inhibition [21]: 0%; inhibition [22]: 9%; inhibition [23]: 8%; inhibition [24]: 1%; inhibition [25]: 4%; inhibition [26]: 0%; inhibition [27]: 3%
0	6	0	0	0	0	0	2	0	0	0	0	2	0	1	5	0	0	0	16	Cc1cc(F)c(Nc2ncnc3cc(OCc4ccccc4)ccc23)cc1O	inhibition [21]: 0%; inhibition [22]: 1%; inhibition [23]: 0%; inhibition [24]: 0%; inhibition [25]: 1%; inhibition [26]: 0%; inhibition [27]: 0%
0	0	0	0	4	0	0	2	0	0	6	0	0	0	0	0	0	0	1	0	N#C/C(=C(/N)Sc1ccc(N)cc1)c1ccccc1C(F)(F)F	inhibition [21]: 0%; inhibition [22]: 1%; inhibition [23]: 0%; inhibition [24]: 0%; inhibition [25]: 11%; inhibition [26]: 0%; inhibition [27]: 0%
0	0	0	0	0	0	0	0	0	0	4	0	0	0	0	0	0	2	0	0	O=C1c2ccccc2-c2n[nH]c3cccc1c23	inhibition [21]: 0%; inhibition [22]: 6%; inhibition [23]: 0%; inhibition [24]: 0%; inhibition [25]: 0%; inhibition [26]: 0%; inhibition [27]: 0%
0	6	0	1	23	0	0	9	0	0	1	16	0	17	0	0	0	9	0	42	Nc1ncnc2[nH]nc(Nc3ccc(F)cc3)c12	inhibition [21]: 0%; inhibition [22]: 14%; inhibition [23]: 13%; inhibition [24]: 0%; inhibition [25]: 24%; inhibition [26]: 3%; inhibition [27]: 2%
30	12	2	12	0	0	59	14	0	14	4	28	2	23	10	0	27	4	4	15	COc1cc2ncn(-c3cc(OCc4ccccc4C(F)(F)F)c(C(N)=O)s3)c2cc1OC	inhibition [21]: 0%; inhibition [23]: 0%; inhibition [24]: 10%; inhibition [25]: 11%; inhibition [26]: 12%; inhibition [27]: 18%
